# Columns and labels:
# human SCLC OC—NYH cells [1] = test: Clonogenic assay, antagonism of etoposide-induced cytotoxicity; format: cell-based; details: 20 μM etoposide, one hour; 20 min pre-exposure
# Description: Cells were then plated in 0.3% agar in 6 cm petri dishes with sheep red blood cells as feeder layer in triplicate, and were incubated under the same conditions as described above. Plates were counted after 3 weeks.
# 20 μM etoposide was then added, and the cells were incubated for one hour. Next, the drugs were washed out and the cells were plated and counted after three weeks as described herein.
# [2] = target: T1, wild-type human topoisomerase II α (Homo sapiens, UniProt P11388); test: Topoisomerase II DNA strand passage assay (kDNA decatenation), wild-type enzyme; format: biochemical; details: wild-type enzyme
# T1 construct: made in house; host or cells: yeast (over-expressing yeast cells)
# Description: Topoisomerase II catalytic activity (DNA strand passage activity) was measured by using a filter-based kDNA decatenation assay as described in Jensen et al., 2002. Briefly, 200 ng ^3H labelled kDNA isolated from C. fasciculata was incubated with increasing concentrations of drug in 20 μL reaction buffer containing 10 mM TRIS-HCl pH 7.7, 50 mM NaCl, 50 mM KCl, 5 mM MgCl2, 1 mM EDTA, 15 μg/mL BSA and 1 mM ATP using two units of purified wild-type or Y165S mutant topoisomerase II α for 20 minutes at 37° C. (where one unit of activity is defined as the amount of enzyme required for complete decatenation in the absence of drug). After addition of 5× stop buffer (5% Sarkosyl, 0.0025% bromophenol blue, and 50% glycerol), unprocessed kDNA network and decatenated DNA mini-circles were separated by filtering, and the amount of unprocessed kDNA in each reaction was determined by scintillation counting.
# FIG. 2 describes the results of studies of the inhibition of topoisomerase II DNA strand passage activity by increasing concentrations of NSC 35866. Inhibition of human topoisomerase II α DNA strand passage activity was assessed by decatenation of tritium-labelled Crithidia fasiculata kDNA using a filter-based assay to separate unprocessed kDNA network from decatenated mini-circles. […] Error bars represent SEM of three independent experiments in panel A and two independent experiments in panel B.
# Inhibition of human topoisomerase II α DNA strand passage activity was determined by decatenation of tritium labelled Crithidia fasiculata kDNA as described for FIG. 2. Error bars represent SEM of 3 or 4 independent experiments.
# [3] = target: T2, bisdioxopiperazine resistant Y165S mutant human topoisomerase II α (Homo sapiens, UniProt P11388, Y165S); format: biochemical; details: FIG. 2-B
# T2 construct: made in house; host or cells: yeast (over-expressing yeast cells)
# topoisomerase II α = topoisomerase II α (Homo sapiens, UniProt P11388); test: Band depletion assay (extractable topoisomerase II α, western blot); format: cell-based; design: OC—NYH cells were exposed to increasing concentrations of NSC 35866 for one hour and total proteins were extracted at 0.3 M NaCl; endogenous in cells; host or cells: human small cell lung cancer OC-NYH cells; details: OC—NYH cells, one hour
# Description: Band depletion assay was performed essentially as described in Sehested et al., 1998. The amount of extractable topoisomerase II α was detected by the ECL detection method (Amersham, Buckinghamshire, United Kingdom). OC—NYH cells were exposed to increasing concentrations of NSC 35866 for one hour and total proteins were extracted at 0.3 M NaCl. For detection of topoisomerase II α, a polyclonal primary antibody (Bio Trend, Cologne, Germany) was used. Horseradish peroxidase linked anti-rabbit antibody (Amersham, Buckinghamshire, United Kingdom) was used as secondary antibody.
# FIG. 10 describes the results of studies of the ability of NSC 35866 to trap human topoisomerase II α as a non-extractable complex on DNA in a dose dependent manner. The ability of NSC 35866 to stabilise topoisomerase II α as a non-extractable complex on DNA in human SCLC OC—NYH cells was assessed using the band depletion assay as described herein. The amounts of topoisomerase II α was visualised by western blotting using a topoisomerase II α specific primary antibody: Lane 1, no drug; Lane 2, 200 μM ICRF-187; Lane 3, 200 μM NSC 35866; Lane 4, 500 μM NSC 35866; Lane 5, 1000 μM NSC 35866. Band depletion of the topoisomerase II α isoform caused by NSC 35866 was detected in two independent experiments.
# human SCLC OC—NYH cells [4] = test: Alkaline elution assay (DNA breaks); format: cell-based
# Description: Alkaline elution assay was performed as described in Kohn et al., 1976 with modifications as described in Sehested et al., 1998. Briefly, to assess the ability of NSC 35866 to protect against etoposide-induced DNA breaks, cells were incubated with increasing concentrations of NSC 35866 for 10 minutes, before 3 μM etoposide was added to the samples. The cells were then co-incubated with 3 μM etoposide along with the same concentrations of NSC 35866 for 60 minutes. Some samples contained no etoposide in order to assess whether NSC 35866 induced DNA breaks by itself. After incubation with drug, cells were lysed and the DNA fragments eluted. DNA in the experimental OC—NYH cells was metabolically labelled by ^14C-thymidine incorporation while DNA in the internal control L1210 cells was metabolically labelled by ^3H-thymidine incorporation.
# FIG. 9 describes the results of studies of the ability of NSC 35866 to antagonise DNA breaks induced by etoposide in human SCLC OC—NYH cells in a dose dependent manner. Alkaline DNA elution was used to detect DNA fragmentation induced by 3 μM etoposide in the presence of increasing concentrations of NSC 35866 as described herein. H202 treated mouse leukemic L1210 cells were used as internal control for DNA fragmentation. The DNA of the experimental OC—NYH cells was ^14C-labelled while the DNA of the L1210 cells was 3H-labelled.
# Sequence of topoisomerase II α (P11388 whole entry): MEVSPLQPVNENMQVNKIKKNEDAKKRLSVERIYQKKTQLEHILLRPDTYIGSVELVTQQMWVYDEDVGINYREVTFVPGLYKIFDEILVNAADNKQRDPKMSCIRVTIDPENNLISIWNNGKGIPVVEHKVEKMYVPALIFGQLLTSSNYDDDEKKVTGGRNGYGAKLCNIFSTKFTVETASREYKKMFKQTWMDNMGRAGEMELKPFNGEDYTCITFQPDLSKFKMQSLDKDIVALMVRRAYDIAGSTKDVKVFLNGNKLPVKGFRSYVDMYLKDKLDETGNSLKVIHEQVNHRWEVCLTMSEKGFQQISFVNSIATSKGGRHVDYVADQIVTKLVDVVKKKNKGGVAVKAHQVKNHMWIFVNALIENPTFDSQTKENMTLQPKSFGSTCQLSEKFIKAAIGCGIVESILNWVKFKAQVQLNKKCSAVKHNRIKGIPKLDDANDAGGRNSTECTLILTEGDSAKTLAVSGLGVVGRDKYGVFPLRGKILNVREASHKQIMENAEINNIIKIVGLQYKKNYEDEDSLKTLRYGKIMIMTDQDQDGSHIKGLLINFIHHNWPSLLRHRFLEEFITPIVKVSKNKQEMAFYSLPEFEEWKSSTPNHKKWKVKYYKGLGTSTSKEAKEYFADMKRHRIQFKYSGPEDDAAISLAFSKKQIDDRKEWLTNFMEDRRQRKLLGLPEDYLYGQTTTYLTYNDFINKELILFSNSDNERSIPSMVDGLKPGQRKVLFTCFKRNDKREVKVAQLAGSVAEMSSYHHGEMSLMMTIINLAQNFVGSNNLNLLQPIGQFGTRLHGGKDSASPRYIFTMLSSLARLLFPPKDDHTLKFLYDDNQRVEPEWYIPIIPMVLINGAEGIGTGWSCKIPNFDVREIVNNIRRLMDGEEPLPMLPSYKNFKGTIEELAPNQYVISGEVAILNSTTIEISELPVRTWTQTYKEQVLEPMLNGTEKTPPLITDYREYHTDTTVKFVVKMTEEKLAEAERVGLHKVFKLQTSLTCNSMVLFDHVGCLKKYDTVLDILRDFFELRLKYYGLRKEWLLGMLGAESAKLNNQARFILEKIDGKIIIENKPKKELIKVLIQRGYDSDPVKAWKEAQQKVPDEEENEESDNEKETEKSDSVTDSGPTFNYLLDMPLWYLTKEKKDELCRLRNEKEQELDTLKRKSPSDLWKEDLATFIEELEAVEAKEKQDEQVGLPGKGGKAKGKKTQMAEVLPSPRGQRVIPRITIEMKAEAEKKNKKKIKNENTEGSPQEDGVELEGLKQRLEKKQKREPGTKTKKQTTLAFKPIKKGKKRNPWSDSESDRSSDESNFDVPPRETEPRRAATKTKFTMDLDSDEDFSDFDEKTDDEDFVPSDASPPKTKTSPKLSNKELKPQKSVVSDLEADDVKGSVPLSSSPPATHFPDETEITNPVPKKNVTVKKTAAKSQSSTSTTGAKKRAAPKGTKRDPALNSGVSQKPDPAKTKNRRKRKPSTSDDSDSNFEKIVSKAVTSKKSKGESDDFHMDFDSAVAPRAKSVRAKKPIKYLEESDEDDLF
# T1 sequence (P11388 whole entry): as above
# T2 sequence (P11388 whole entry Y165S): as the sequence (P11388 whole entry) above, with Y165S counted along it
smiles,measurement,setting,value
"Nc1nc(SCCc2ccccc2)c2nc[nH]c2n1 [NSC 35866, 2-amino-6-(phenylethylthio)-purine]",reduction of etoposide-induced cytotoxicity,human SCLC OC—NYH cells [1],up to 50 fold
same,concentrations at which DNA strand passage activity is inhibited,[2]; FIG. 2-A,above 250 μM
same,"inhibition of DNA strand passage (decatenation) activity, in words",[2]; FIG. 2-A and FIG. 5,clearly less potent in comparison with the reference compound ICRF-187
same,"inhibition of catalytic activity of the Y165S protein, in words",[3],capable of doing so
same,"effect on amount of extractable topoisomerase II α, in words",topoisomerase II α; 200 μM,no effect
same,"effect on amount of extractable topoisomerase II α, in words",topoisomerase II α; 500 μM,reduced the amount of extractable topoisomerase II
same,"effect on amount of extractable topoisomerase II α, in words",topoisomerase II α; 1000 μM,reduced the amount of extractable topoisomerase II
same,"effect on DNA breaks induced by 3 μM etoposide, in words","human SCLC OC—NYH cells [4]; 30 μM, repeated assay",no detectable effect
same,"effect on DNA breaks induced by 3 μM etoposide, in words",human SCLC OC—NYH cells [4]; 100 μM,no detectable effect
same,"effect on DNA breaks induced by 3 μM etoposide, in words","human SCLC OC—NYH cells [4]; 100 μM, repeated assay",no detectable effect
same,"effect on DNA breaks induced by 3 μM etoposide, in words","human SCLC OC—NYH cells [4]; 300 μM, repeated assay",partly antagonised
same,"effect on DNA breaks induced by 3 μM etoposide, in words",human SCLC OC—NYH cells [4]; 500 μM,partly antagonised
same,"effect on DNA breaks induced by 3 μM etoposide, in words",human SCLC OC—NYH cells [4]; 1000 μM,completely antagonised
same,"DNA breaks induced by the drug alone, in words","human SCLC OC—NYH cells [4]; concentrations up to 1000 μM, no etoposide",does not induce detectable levels of DNA breaks

# Reference: US20090209535A1, “6-ETHER/THIOETHER-PURINES AS TOPOISOMERASE II CATALYTIC INHIBITORS AND THEIR USE IN THERAPY” (TOPOTARGET A/S, priority 2005, published 2009)
